In US9708628B2, “Cationic lipid having improved intracellular kinetics” (NOF CORPORATION, priority 2011, dated 2017):

Legend:
[1] = Particle size and surface potential of pDNA-encapsulating MENDs, dynamic light scattering (Zetasizer Nano); assay type: physicochemical; conditions: pDNA MEND, cationic lipid:SOPE:Chol = 3:4:3
Procedure: A solution of pDNA encoding luciferase gene and protamine (CALBIOCHEM) solution were diluted with 10 mM HEPES buffer to 0.3 mg/mL and […], respectively. While stirring 0.3 mg/mL pDNA (125 μL), 0.24 mg/mL protamine (125 μL) was added dropwise in small portions to prepared an electrostatic complex of protamine and pDNA (N/P ratio=1.2) as a core of the vector. In the method described in the following (2), 10 mM HEPES buffer (pH 5.3) was used and, in the method described in (3), 10 mM HEPES buffer (pH 7.4) was used.
A lipid solution in ethanol was prepared by mixing 5 mM cationic lipid, 5 mM phospholipid and 5 mM cholesterol (Chol) at desired ratios to achieve 165 nmol total lipid in an Eppendorf tube, further adding various PEG lipids (1 mM solution in ethanol) in an amount corresponding to 3 mol % of the total lipid, and adding ethanol to achieve a total volume of 100 μL. While stirring the lipid solution in a vortex mixer, 100 μL of the nucleic acid electrostatic complex (10 mM HEPES; pH 5.3) prepared in [Experimental Example 1] (1) was quickly added, and thereafter 10 mM HEPES buffer (1.8 mL, adjusted to pH 5.3) was added to dilute the mixture to an ethanol concentration of 5%. The mixture was concentrated to about 50 μL by ultrafiltration using Amicon Ultra 4 (Millipore) under centrifugation conditions (room temperature, 2267 rpm, 20 min). Thereafter, it was diluted to 4 mL with 100 mM HEPES buffer (adjusted to pH 7.4), and again concentrated by centrifugation (2267 rpm, 20 min) under room temperature conditions. Finally, it was diluted with 10 mM HEPES buffer (pH 7.4) to a desired lipid concentration.
A solution of each lipid in chloroform (5 mM DOTAP 24.75 μL, 5 mM DOPE 33 μL, 5 mM Chol 24.75 μL) were mixed in a glass test tube at DOTAP:DOPE:Chol=3:4:3 to achieve 412.5 nmol total lipid. Ethanol was added to a total amount of 250 μL, and the mixture was dried under reduced pressure in a desiccator. The solvent was evaporated to give a lipid thin film. To the lipid thin film was added 250 μL of the gene electrostatic complex (in 10 mM HEPES; pH 7.4) prepared in [Experimental Example 1] (1) to a total lipid concentration of 1.65 mM, and the mixture was stood at room temperature for 10 min to allow for hydration, and sonicated by a sonicator (AIWA MEDICAL […] CO., LTD.) for 1 min.
The particle size and the surface potential were measured by the dynamic light scattering method (Zetasizer Nano; Malve Rn). The particle size and the surface potential of the various MENDs prepared by the preparation method of [Experimental Example 1] are shown in Table 3. The charge of B-2 and DODAP at physiological pH was in a preferable mode of −10 to +10 mV, whereas that of B-2-1 was +12.3, which is not less than +10 mV.
(1) MEND having a composition of B-2-4 (Example 4):DOPE:Chol=3:3:4 or B-2-5 (Example 5):POPE:Chol=3:4:3 was prepared according to the method described in [Experimental Example 1] (1) and (2).
The particle size and the surface potential were measured by the dynamic light scattering method (Zetasizer Nano; Malvern). The particle size and the surface potential of the various MENDs prepared by the preparation method of [Experimental Example 1] are shown in Table 4.

HT1080 cells = assay: Gene expression by MEND (luciferase assay, RLU/mg protein); assay type: cell-based; conditions: cationic lipid:SOPE:Chol=3:4:3, PEG2000DSG; pDNA 0.4 μg/well, 24 hr
Procedure: Using B-2 (Example 1), B-2-1 (Comparative Example 1), and DODAP (Comparative Example 2) as cationic lipids, MENDs having a composition of cationic lipid:SOPE:Chol=3:4:3 were prepared by the method described in [Experimental Example 1] (2). For the preparation, PEG2000DSG was used as PEG lipid, and MEND solutions corresponding to 0.55 mM of the lipid concentration were prepared. For cationic MEND, lipids having a composition of DOTAP:DOPE:Chol:=3:4:3 were used, and the cationic MEND was prepared according to the method described in [Experimental Example 1] (3).
HT1080 cells were plated on a 24-well plate at 4×10^4 cells/500 μL/well 24 hr before, various MENDs were diluted with DMEM (FBS 10%+) to a pDNA amount of 0.4 μg/500 μL/well and transfected. 24 hr later, the cells were washed with PBS(−) (500 μL), 1× Lysis buffer was added to each well by 75 μL, and the mixture was stood at −80° C. for 30 min or longer. The frozen 24-well plate was thawed on ice, the cells were detached with a cell scraper, and the total amount thereof was transferred into an Eppendorf tube and centrifuged under the conditions of 15000 rpm, 4° C., 5 min. The supernatant (50 μL) was recovered in a different Eppendorf tube, and used for luciferase assay and BCA assay.
20 μL thereof was mixed with a Luciferase assay substrate (50 μL), and the luciferase activity in a given time was measured by a luminometer. The obtained lysate was diluted 5-fold with DDW to achieve 25 μL total volume. Thereto was added BCA Protein Assay Reagent (200 μL), and the mixture was stood at 37° C. for 30 min. Thereafter, the absorbance at 562 nm was measured, and the protein amount of the sample was calculated from the absorbance of a BSA solution having a known concentration. The luciferase activity (RLU) was adjusted by dividing with protein amount (mg), and the luciferase activity per cell protein amount (RLU/mg protein) was calculated.
Using B-2 (Example 1), B-2-2 (Example 2), and B-2-3 (Example 3) as cationic lipids, MENDs having a composition of cationic lipid:SOPE:Chol=3:4:3 were prepared by the method described in [Experimental Example 1] (2). For the preparation, PEG2000DSG was used as PEG lipid, and MEND solutions corresponding to 0.55 mM of the lipid concentration were prepared. The gene expression was evaluated by the method described in [Example 4] (2).
Using compositions of B-2-4 (Example 4):DOPE:Chol=3:3:4, B-2-5 (Example 5):POPE:Chol=3:3:4, B-2 (Example 1):SOPE:Chol=5:3:2 as lipids, MENDs were prepared according to [Experimental Example 1](1) and (2). For the preparation, PEG2000-DMG was used as PEG lipid, and MEND solutions corresponding to 0.55 mM of the lipid concentration were prepared.
The gene expression activity was evaluated by the method described in [Experimental Example 4] (2).

[2] = Particle size and surface potential of siRNA MENDs prepared by t-BuOH injecting method; assay type: physicochemical; conditions: siRNA MEND; for PDI / size (nm) / zeta (mV): cationic lipid/cholesterol=70/30, DMG-PEG2000 3%
Procedure: (§1) A lipid solution in t-BuOH with a composition of cationic lipid/cholesterol=70/30, DMG-PEG2000 3% and a total lipid amount of 3000 nmol/400 μL (7.5 mM) was prepared in a 1.7 mL tube. In a separate 1.7 mL tube, an siRNA solution was prepared by mixing an siRNA aqueous solution containing siRNA (160 μg) and 20 mM malate buffer (pH 4.00, 30 mM NaCl) to total 50 μL. With vigorous stirring of the lipid solution, the siRNA solution was gradually added dropwise, and the mixed solution was taken in a 1 mL syringe. Then, 20 mM malate buffer (pH 4.00, 30 mM NaCl, 2 mL) was added into a 5 mL tube, and the mixed solution was gradually injected with vigorous stirring. Thereafter, the mixture was further diluted with PBS (7 mL) and centrifuged at 1000 g, 30° C. for 10 min in Amicon Ultra-15-100K to a volume of less than 1.5 mL. PBS (15 mL) was added, and the solution was centrifuged again to about 500-1000 μL. Finally, the MEND solution was adjusted by diluting with PBS to the object lipid concentration.
The particle size and surface potential of various MENDs were measured according to the method described in [Experimental Example 2] and the results are shown in Table 6.

Factor VII (FVII) = assay: Knockdown effect of siRNA-encapsulated MEND prepared by t-BuOH injecting method; assay type: in vivo, ICR mice; conditions: varying doses of siRNA, tail vein
Procedure: A MEND solution prepared by the method shown in [Experimental Example 28] was administered to 4-week-old male ICR mice at 3 mg siRNA/kg from the tail vein, and blood was collected 24 hr later. This blood sample was centrifuged at 1000 g, 10 min, 4° C., and the supernatant was recovered to obtain plasma. The amount of Factor VII (FVII) in the plasma was quantified by BIOPHEN FVII CHROMOGENIC ASSAY (HYPHEN BioMed).
as §1
MENDs prepared by the method shown in Experimental Example 32 were administered by a method similar to the method shown in Experimental Example 30 with varying doses of siRNA, and the knockdown effect was evaluated. The results are shown in FIG. 35, FIG. 36, and FIG. 37.

| PDI [1] | size (nm) [1] | zeta (mV) [1] | PDI [2] | size (nm) [2] | zeta (mV) [2] | charge at physiological pH [2] | SMILES | gene expression activity (luciferase activity per cell protein) (HT1080 cells) | FVII expression level (knockdown effect) (Factor VII (FVII)) |
| --- | --- | --- | --- | --- | --- | --- | --- | --- | --- |
| 0.091 | 148.7 nm | −7.97 mV | – | – | – | – | CCCCC/C=C\C/C=C\CCCCCCCC(=O)OCCCN(C)CCSSCCN(C)CCCOC(=O)CCCCCCC/C=C\C/C=C\CCCCC [Example B-2-3] | inferior to that of B-2, but exceeds that of conventional pH-responsive lipid cationic lipid, DODAP | – |
| – | – | – | 0.13 | 120 nm | −13.0 mV | – | Cc1c(C)c2c(c(C)c1OC(=O)CCCC(=O)OCCCN(C)CCSSCCN(C)CCCOC(=O)CCCC(=O)Oc1c(C)c(C)c3c(c1C)CCC(C)(CCCC(C)CCCC(C)CCCC(C)C)O3)CCC(C)(CCCC(C)CCCC(C)CCCC(C)C)O2 (centres unmarked) [TG-C3M] | – | – |
| – | – | – | 0.07 | 118 nm | −9.8 mV | – | CCN(CCCCOC(=O)CCC(=O)Oc1c(C)c(C)c2c(c1C)CCC(C)(CCCC(C)CCCC(C)CCCC(C)C)O2)CCSSCCN(CC)CCCCOC(=O)CCC(=O)Oc1c(C)c(C)c2c(c1C)CCC(C)(CCCC(C)CCCC(C)CCCC(C)C)O2 (centres unmarked) [TS-C4E] | – | – |
| – | – | – | 0.13 | 113 nm | −11.9 mV | – | Cc1c(C)c2c(c(C)c1OC(=O)CCC(=O)OCC1CCN(CCSSCCN3CCC(COC(=O)CCC(=O)Oc4c(C)c(C)c5c(c4C)CCC(C)(CCCC(C)CCCC(C)CCCC(C)C)O5)CC3)CC1)CCC(C)(CCCC(C)CCCC(C)CCCC(C)C)O2 (centres unmarked) [TS-P4C1] | – | highest knockdown effect |

The remaining lines, values behind:

| SMILES | PDI [1] | size (nm) [1] | zeta (mV) [1] | PDI [2] | size (nm) [2] | zeta (mV) [2] | charge at physiological pH [2] | gene expression activity (luciferase activity per cell protein) (HT1080 cells) | FVII expression level (knockdown effect) (Factor VII (FVII)) |
| --- | --- | --- | --- | --- | --- | --- | --- | --- | --- |
| CCCCCCCCCCCCCCCCCC(=O)OCCCN(C)CCSSCCN(C)CCCOC(=O)CCCCCCCCCCCCCCCCC [Example B-2-2] | 0.132 | 134.6 nm | −5.77 mV | – | – | – | – | inferior to that of B-2, but exceeds that of conventional pH-responsive lipid cationic lipid, DODAP | – |
| Cc1c(C)c2c(c(C)c1OC(=O)CCC(=O)OCCCCCN(CCSSCCN(CCCCCOC(=O)CCC(=O)Oc1c(C)c(C)c3c(c1C)CCC(C)(CCCC(C)CCCC(C)CCCC(C)C)O3)C(C)C)C(C)C)CCC(C)(CCCC(C)CCCC(C)CCCC(C)C)O2 (centres unmarked) [TS-C5P] | – | – | – | 0.13 | 125 nm | −6.4 mV | – | – | – |
| Cc1c(C)c2c(c(C)c1OC(=O)CCC(=O)OCC1CCCCN1CCSSCCN1CCCCC1COC(=O)CCC(=O)Oc1c(C)c(C)c3c(c1C)CCC(C)(CCCC(C)CCCC(C)CCCC(C)C)O3)CCC(C)(CCCC(C)CCCC(C)CCCC(C)C)O2 (centres unmarked) [TS-P2C1] | – | – | – | 0.12 | 114 nm | −12.2 mV | – | – | – |
| Cc1c(C)c2c(c(C)c1OC(=O)CCC(=O)OCC1CCCN(CCSSCCN3CCCC(COC(=O)CCC(=O)Oc4c(C)c(C)c5c(c4C)CCC(C)(CCCC(C)CCCC(C)CCCC(C)C)O5)C3)C1)CCC(C)(CCCC(C)CCCC(C)CCCC(C)C)O2 (centres unmarked) [TS-P3C1] | – | – | – | 0.13 | 118 nm | −9.8 mV | – | – | – |
| Cc1c(C)c2c(c(C)c1OC(=O)CCC(=O)OCCC1CCN(CCSSCCN3CCC(CCOC(=O)CCC(=O)Oc4c(C)c(C)c5c(c4C)CCC(C)(CCCC(C)CCCC(C)CCCC(C)C)O5)CC3)CC1)CCC(C)(CCCC(C)CCCC(C)CCCC(C)C)O2 (centres unmarked) [TS-P4C2] | – | – | – | 0.07 | 125 nm | −8.5 mV | – | – | highest knockdown effect |
| Cc1c(C)c2c(c(C)c1OC(=O)CCC(=O)NCCCN(C)CCSSCCN(C)CCCNC(=O)CCC(=O)Oc1c(C)c(C)c3c(c1C)CCC(C)(CCCC(C)CCCC(C)CCCC(C)C)O3)CCC(C)(CCCC(C)CCCC(C)CCCC(C)C)O2 (centres unmarked) [TSamide-C3M] | – | – | – | 0.21 | 93 nm | 7.0 mV | weak positive charge | – | – |
